Experimental data taken from paper PMC11507523, “Development of Malate Biosensor-Containing Hydrogels and Living Cell-Based Sensors” (International Journal of Molecular Sciences, 2024).

Target: T1, CitT (Escherichia coli, UniProt P0AE74)
T1 construct: CitT co-expressed with Malon in E. coli BL21 cells
T1 sequence (P0AE74 1-487): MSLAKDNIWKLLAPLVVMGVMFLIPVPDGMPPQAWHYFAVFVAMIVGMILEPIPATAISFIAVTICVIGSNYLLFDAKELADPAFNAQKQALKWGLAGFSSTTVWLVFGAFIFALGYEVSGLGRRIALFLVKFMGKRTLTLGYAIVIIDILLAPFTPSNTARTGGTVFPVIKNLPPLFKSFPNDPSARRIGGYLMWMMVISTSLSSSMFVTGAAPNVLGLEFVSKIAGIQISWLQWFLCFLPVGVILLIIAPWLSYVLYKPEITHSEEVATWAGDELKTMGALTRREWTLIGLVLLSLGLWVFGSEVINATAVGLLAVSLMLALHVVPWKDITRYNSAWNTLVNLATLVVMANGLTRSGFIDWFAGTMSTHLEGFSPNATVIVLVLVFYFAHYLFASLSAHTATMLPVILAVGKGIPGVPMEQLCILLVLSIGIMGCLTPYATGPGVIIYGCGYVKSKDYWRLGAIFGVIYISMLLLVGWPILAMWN
Test: CitT-dependent malate uptake in E. coli, Malon fluorescence by flow cytometry
Type: cell-based

O=C(O)C[C@H](O)C(=O)O [malate]
CitT-dependent malate uptake in E. coli, Malon fluorescence by flow cytometry: Without the CitT transporter, little to no change in fluorescence was observed upon addition of malate
